In patent publication US20250034211A1, “C-TERMINAL EXTENDED P53 ACTIVATOR CROSSLINKED PEPTIDOMIMETIC MACROCYCLES AGAINST MDM2/MDMX” (Merck Sharp & Dohme LLC, priority 2021, published 2025):
pEC50, pKd: −log10 of the molar value. Values after ≈ are worked out from the molar mass of the structure shown. *1 amine or outer side, *2 acyl side, *3 side chain or, on linkers, in order; H or OH if unused. Where a SMILES comes first, the peptide text is derived from it. Bridges are numbered along the chain shown (N, C = ends). [ ]: non-standard residue; d: D form. ξ: configuration not given here. ξαMeNle(6-ylidene) = CC(CCCC=[*:3])(N[*:1])C(=O)[*:2]; X1 = CC(CCCCCCC=[*:3])(N[*:1])C(=O)[*:2]; Lys(N3) = [N-]=[N+]=NCCCC[C@H](N)C(=O)O; R8 = C=CCCCCCC[C@@](C)(N)C(=O)O; ξαMeE = CC(N)(CCC(=O)O)C(=O)O; Cba = N[C@@H](CC1CCC1)C(=O)O; S5 = C=CCCC[C@](C)(N)C(=O)O; βAla = NCCC(=O)O

Legend:
HCT116 cells = assay: Lactate dehydrogenase release assay (LDH); assay type: cell-based
Experimental: HCT116 cells were seeded into a 384-well plate at a density of 8000 cells per well. Cells were maintained in McCoy's 5A Medium with 10% fetal bovine serum (FBS), Blasticidin and Penicillin/Streptomycin. The cells were incubated overnight followed by the removal of cell media and the addition of Opti-MEM Medium without FBS. Cells were then treated with peptides for 4/16 hours in Opti-MEM either in 10% FBS or serum free. Final concentration of DMSO was 0.5%. Lactate dehydrogenase release was detected using CytoTox-ONE Homogenous Membrane Integrity Assay Kit (Promega) as per manufacturer's instructions. Measurements were carried out using Tecan plate reader. Maximum LDH release was defined as the amount of LDH released induced by the lytic peptide (iDNA79) and used to normalize the results.

Solubility (PBS, pH 7) = settings: pH 7
[1] = test system: Jump-In T-REx CHO-K1 BLA cells; assay: Tetracycline beta-lactamase reporter gene assay (counter screen); assay type: cell-based
Experimental: Based on Jump-In™ T-REx™ CHO-K1 BLA cells and contain a stably integrated β-lactamase under the control of an inducible CMV promoter. Cells were seeded into a 384-well plate a density of 4000 cells per well. Cells were maintained in Dulbecco's Minimal Eagle Medium (DMEM) with 10% fetal bovine serum (FBS), Blasticidin and Penicillin/Streptomycin. The cells were incubated for 24 hours, followed by cell media removal and replacement with Opti-MEM either containing 10% FBS or 0% FBS. Peptides were then dispensed to each well using a liquid handler, ECHO 555 and incubated for 4/16 hours. Final working concentration of DMSO was 0.5%. β-Lactamase activity was detected using the ToxBLAzer Dual Screen (Invitrogen) as per manufacturer's instructions. Measurements were carried out using Envision multiplate reader (Perkin Elmer). Counter Screen activity was defined as the amount of 0-lactamase activity induced by tetracycline.

[2] = molecular target: T1, MDM2 (1-125; SEQ ID NO 14) (Homo sapiens, UniProt Q00987); assay: MDM2 binding assay (fluorescence anisotropy competition, FP)
T1 construct: GST (N); His6 (internal); TEV cleavage site ENLYFQG (internal); made in house; host or cells: E. coli BL21 (DE3) Rosetta T1R
T1 sequence (Q00987 with tags, fused parts or gaps): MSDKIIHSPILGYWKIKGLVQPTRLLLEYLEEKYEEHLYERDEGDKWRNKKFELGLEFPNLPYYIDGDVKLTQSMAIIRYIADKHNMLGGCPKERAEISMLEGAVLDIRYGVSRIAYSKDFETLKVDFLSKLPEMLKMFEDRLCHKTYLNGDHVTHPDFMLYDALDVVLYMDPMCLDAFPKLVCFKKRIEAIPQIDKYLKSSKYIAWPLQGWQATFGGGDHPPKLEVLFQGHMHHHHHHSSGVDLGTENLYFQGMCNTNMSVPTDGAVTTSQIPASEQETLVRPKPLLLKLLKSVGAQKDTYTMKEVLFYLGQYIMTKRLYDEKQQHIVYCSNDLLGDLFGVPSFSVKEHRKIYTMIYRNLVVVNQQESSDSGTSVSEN
Experimental: [P] is the protein concentration (MDM2), [L] is the labeled peptide concentration, r is the anisotropy measured, r0 is the anisotropy of the free peptide, rb is the anisotropy of the MDM2-FAM-labeled peptide complex, Kd is the dissociation constant, [L]t is the total FAM labeled peptide concentration, and [P]t is the total MDM2 concentration. […] The competing molecules were then titrated against the complex of the FAM-labeled peptide and protein. Apparent Kd values were determined by fitting the experimental data to the equations shown below:
[L]st and [L]t denote labeled ligand and total unlabeled ligand input concentrations, respectively. Kd2 is the dissociation constant of the interaction between the unlabeled ligand and the protein. In all competition experiments, it is assumed that [P]t>[L]st, otherwise considerable amounts of free labeled ligand would always be present and would interfere with measurements. […] The FAM-labeled peptide was dissolved in dimethyl sulfoxide (DMSO) at 1 mM and diluted into experimental buffer. Readings were carried out with an Envision Multilabel Reader (PerkinElmer). […] All titrations were carried out in triplicate. Curve-fitting was carried out using Prism 4.0 (GraphPad). […] Negative control titrations of the ligands under investigation were also carried out with the fluorescently labeled peptide (in the absence of MDM2) to ensure no interactions were occurring between the ligands and the FAM-labeled peptide.

p53 null Ca Ski = settings: for p53 null Ca Ski proliferation % Max: 72 h, 10% serum; for % inhibition at maximum concentration in p53 null negative control cell line: maximum assay concentration (50 uM)
HCT116 = settings: for HCT116 proliferation % Max: 72 h, 10% serum; for pEC50: read-out: cellular efficacy in cell proliferation HTC116 p53 positive control cell lines
[3] = test system: p53 (HCT116 cells stably transfected with a p53 responsive β-lactamase reporter); assay: p53 beta-lactamase reporter gene cellular functional assay; assay type: cell-based
Experimental: HCT116 cells were stably transfected with a p53 responsive β-lactamase reporter, and were seeded into a 384-well plate at a density of 8,000 cells per well. Cells were maintained in McCoy's 5A Medium with 10% fetal bovine serum ([…]), Blasticidin and Penicillin/Streptomycin. The cells were incubated overnight and followed by removal of cell growth media and replaced with Opti-MEM either containing 0% FBS or 10% FBS. Peptides were then dispensed to each well using a liquid handler, ECHO 555 and incubated for 4/16 hours. Final working concentration of dimethyl sulfoxide (DMSO) was 0.5%. β-Lactamase activity was detected using the ToxBLAzer Dual Screen (Invitrogen) as per manufacturer's instructions. Measurements were done using Envision multiplate reader (Perkin-Elmer). Maximum p53 activity was defined as the amount of β-lactamase activity induced by 50 μM azide-ATSP-7041 (stapled p53 peptide; Aileron Therapeutics, Inc.). This was determined as the highest amount of p53 activity induced by azide-ATSP-7041 by titration on HCT116 cells.

| Structure (SMILES) | pEC50 (HCT116 cells; 0% FBS, 4 h) | pEC50 (HCT116 cells; 10% FBS, 16 h) | logD (HPLC LogD) | solubility (Solubility (PBS, pH 7); PBS) | pEC50 ([1]; 0% FBS, 4 h) | pEC50 ([1]; 10% FBS, 16 h) | pKd [2] | chromatographic logD (HPLC LogD) | p53 null Ca Ski proliferation % Max (p53 null Ca Ski) | % inhibition at maximum concentration in p53 null negative control cell line (p53 null Ca Ski) | pEC50 (p53 null Ca Ski; read-out: EC50 in p53 null negative control cell line) | HCT116 proliferation % Max (HCT116) | pEC50 (HCT116) | solubility (Solubility (PBS, pH 7)) | pEC50 ([3]; 0% serum at 4 hours) | pEC50 ([3]; 10% serum at 16 hours) | fold improvement of cellular activity in p53 cellular assay ([3]; versus Reference Macrocycle 1, both 0% serum at 4 hours and 10% serum at 16 hours) |
| --- | --- | --- | --- | --- | --- | --- | --- | --- | --- | --- | --- | --- | --- | --- | --- | --- | --- |
| CC(=O)N[C@@H](CCCCN=[N+]=[N-])C(=O)NCCC(=O)N[C@@H](CC(C)C)C(=O)N[C@H](C(=O)N[C@@H](Cc1ccccc1)C(=O)N[C@]1(C)CCCCCCC=CCCC[C@@](C)(C(=O)N[C@@H](C)C(=O)N[C@@H](C)C(=O)N[C@@H](Cc2ccccc2)C(=O)N[C@@H](C)C(=O)N[C@@H](C)C(=O)N[C@H](C)C(N)=O)NC(=O)[C@H](CC2CCC2)NC(=O)[C@H](CCC(N)=O)NC(=O)[C@H](C)NC(=O)[C@H](Cc2c[nH]c3ccccc23)NC(=O)[C@H](Cc2ccc(O)cc2)NC(=O)[C@H](CCC(=O)O)NC1=O)[C@@H](C)O [Macrocycle 7, Ac-K(N3)-betaAla-L-T-F-X1a-E-Y-W-A-Q-Cba-X2a-AAFAA-(D-Ala)-NH2(olefinstaple from X1ato X2a)] (Ac-[Lys(N3)][βAla]LTF[R8]EYWAQ[Cba][S5]AAFAA[dA]-NH2; staple 6-13) | < 4.30 | < 4.30 | 3.59 | 2 µM (≈ 4.49 µg/mL) | < 4.30 | < 4.30 | 8.38 | – | – | – | – | – | – | – | – | – | – |
| CC(=O)N[C@@H](CCCCN=[N+]=[N-])C(=O)NCCC(=O)N[C@@H](CC(C)C)C(=O)N[C@H](C(=O)N[C@@H](Cc1ccccc1)C(=O)N[C@]1(C)CCCCCCC=CCCC[C@@](C)(C(=O)N[C@@H](C)C(=O)N[C@@H](C)C(=O)N[C@@H](Cc2ccccc2)C(=O)N[C@@H](C)C(=O)N[C@@H](C)C(=O)N[C@H](Cc2ccccc2)C(N)=O)NC(=O)[C@H](CC2CCC2)NC(=O)[C@H](CCC(N)=O)NC(=O)[C@H](C)NC(=O)[C@H](Cc2c[nH]c3ccccc23)NC(=O)[C@H](Cc2ccc(O)cc2)NC(=O)[C@H](CCC(=O)O)NC1=O)[C@@H](C)O [Macrocycle 5, Ac-K(N3)-betaAla-L-T-F-X1a-E-Y-W-A-Q-Cba-X2a-AAFAA-(D-Phe)-NH2(olefinstaple from X1ato X2a)] (Ac-[Lys(N3)][βAla]LTF[R8]EYWAQ[Cba][S5]AAFAA[dF]-NH2; staple 6-13) | < 4.30 | < 4.30 | 4.12 | 9 µM (≈ 20.9 µg/mL) | < 4.30 | < 4.30 | 7.25 | – | – | – | – | – | – | – | – | – | – |
| CC(=O)N[C@@H](CCCCN=[N+]=[N-])C(=O)NCCC(=O)N[C@@H](CC(C)C)C(=O)N[C@H](C(=O)N[C@@H](Cc1ccccc1)C(=O)N[C@]1(C)CCCCC#CC#CCCC[C@@](C)(C(=O)N[C@@H](C)C(=O)N[C@@H](C)C(=O)N[C@@H](C)C(=O)N[C@@H](C)C(=O)N[C@@H](C)C(=O)N[C@@H](C)C(N)=O)NC(=O)[C@H](CC2CCC2)NC(=O)[C@H](CCC(N)=O)NC(=O)[C@H](C)NC(=O)[C@H](Cc2c[nH]c3ccccc23)NC(=O)[C@H](Cc2ccc(O)cc2)NC(=O)[C@H](CCC(=O)O)NC1=O)[C@@H](C)O [Macrocycle 12, Ac-K(N3)-betaAla-L-T-F-X1b-E-Y-W-A-Q-Cba-X2b-AAAAAA-NH2 (di-alkyne staple from X1b to X2b)] | < 4.30 | < 4.30 | – | – | < 4.30 | < 4.30 | – | 2.69 | 3% | 3% | < 4.30 | 72% | 6.91 | – | – | – | – |
| CC(=O)N[C@@H](CCCCN=[N+]=[N-])C(=O)NCCC(=O)N[C@@H](CC(C)C)C(=O)N[C@H](C(=O)N[C@@H](Cc1ccccc1)C(=O)NC1(C)CCCCCCC=CCCCC(C)(C(=O)N[C@@H](C)C(=O)N[C@@H](C)C(=O)N[C@@H](Cc2ccccc2)C(=O)N[C@@H](C)C(=O)NC(C)(CCC(=O)O)C(=O)N[C@@H](Cc2ccccc2)C(N)=O)NC(=O)[C@H](CC2CCC2)NC(=O)[C@H](CCC(N)=O)NC(=O)[C@H](C)NC(=O)[C@H](Cc2c[nH]c3ccccc23)NC(=O)[C@H](Cc2ccc(O)cc2)NC(=O)[C@H](CCC(=O)O)NC1=O)[C@@H](C)O (stereo partly drawn) [Macrocycle 9, Ac-K(N3)-betaAla-L-T-F-X1a-E-Y-W-A-Q-Cba-X2a-AAFA-(alpha-methyl-Glu)-F-NH2(olefinstaple from X1ato X2a)] (Ac-[Lys(N3)][βAla]LTF[X1]EYWAQ[Cba][ξαMeNle(6-ylidene)]AAFA[ξαMeE]F-NH2; staple 6-13) | – | – | – | – | < 4.30 | < 4.30 | – | 2.93 | – | – | – | – | – | 153 µM (≈ 366 µg/mL) | – | – | – |
| CC(=O)N[C@@H](CCCCN=[N+]=[N-])C(=O)NCCC(=O)N[C@@H](CC(C)C)C(=O)N[C@H](C(=O)N[C@@H](Cc1ccccc1)C(=O)N[C@]1(C)CCCCCCC=CCCC[C@@](C)(C(=O)N[C@@H](C)C(=O)N[C@@H](C)C(=O)N[C@@H](C)C(=O)N[C@@H](C)C(=O)N[C@@H](C)C(=O)N[C@@H](C)C(N)=O)NC(=O)[C@H](CC2CCC2)NC(=O)[C@H](CCC(N)=O)NC(=O)[C@H](C)NC(=O)[C@H](Cc2c[nH]c3ccccc23)NC(=O)[C@H](Cc2ccc(O)cc2)NC(=O)[C@H](CCC(=O)O)NC1=O)[C@@H](C)O [Macrocycle 2, Ac-K(N3)-betaAla-L-T-F-X1a-E-Y-W-A-Q-Cba-X2a-AAAAAA-NH2 (olefin staple from X1a to X2a)] (Ac-[Lys(N3)][βAla]LTF[R8]EYWAQ[Cba][S5]AAAAAA-NH2; staple 6-13) | < 4.30 | < 4.30 | – | – | < 4.30 | < 4.30 | 8.03 | – | 29% | 29% | – | 89% | 6.24 | – | 6.84 | 6.13 | ~3.5 fold |
| CC(=O)N[C@@H](CCCCN=[N+]=[N-])C(=O)NCCC(=O)N[C@@H](CC(C)C)C(=O)N[C@H](C(=O)N[C@@H](Cc1ccccc1)C(=O)N[C@]1(C)CCCCCCC=CCCC[C@@](C)(C(=O)N[C@@H](C)C(=O)N[C@@H](C)C(=O)N[C@@H](C)C(=O)N[C@@H](C)C(=O)N[C@@H](C)C(=O)N[C@@H](Cc2ccccc2)C(N)=O)NC(=O)[C@H](CC2CCC2)NC(=O)[C@H](CCC(N)=O)NC(=O)[C@H](C)NC(=O)[C@H](Cc2c[nH]c3ccccc23)NC(=O)[C@H](Cc2ccc(O)cc2)NC(=O)[C@H](CCC(=O)O)NC1=O)[C@@H](C)O [Macrocycle 6, Ac-K(N3)-betaAla-L-T-F-X1a-E-Y-W-A-Q-Cba-X2a-AAAAAF-NH2 (olefin staple from X1a to X2a)] (Ac-[Lys(N3)][βAla]LTF[R8]EYWAQ[Cba][S5]AAAAAF-NH2; staple 6-13) | < 4.30 | < 4.30 | – | – | < 4.30 | < 4.30 | 8.68 | – | – | – | – | – | – | – | – | – | – |
